Assay results published in PMC3161871, “Heteroarylketones inhibit astroglial interleukin-6 expression via a STAT3/NF-κB signaling pathway” (Journal of Neuroinflammation, 2011).

Assays:
[1] = tested on: LPS-induced IL-6 release in primary mouse astrocytes; test: LPS-induced IL-6 release in primary mouse astrocytes (ELISA); type: cell-based; settings: 1 μg/ml LPS, 20 μM compound, 24 h
Experimental: According to Löffler, astrocyte-rich primary cell cultures were started with brains of newborn mice and rats and were maintained in Dulbecco's modified Eagle's medium (DMEM) for 33 days at 37°C in a humified atmosphere with 95% air/5% CO2.
(§1) Measurements of IL-6 in conditioned medium and murine plasma samples were done by means of human- or murine-specific IL-6 Cytoset kits (Invitrogen, Darmstadt, Germany) according to manufacturer's protocols.
Figure 5 Suppression of LPS-induced IL-6 release in primary murine astrocytes by selected HAK compounds. […] Astrocytes derived from newborn mice and rats were cultivated for 33 days followed by stimulation with 1 μg/ml LPS and treatment with compounds HAK-2 and HAK-5 (20 μM). After 24 hours conditioned media were analyzed with IL-6 specific ELISA. Data (mean ± SD) were obtained from experiments carried out in quadruplicate and statistical analysis was performed using the paired t test. Amount of IL-6 in LPS-treated control sample was set to 100%. ns, not significant; **p < 0.01; ***p < 0.001.
Primary murine astrocytes stimulated with 1 μg/ml LPS were co-treated with compounds HAK-2 and HAK-5 at a concentration of 20 μM each for 24 h. The observed effect of compounds HAK-2 and HAK-5 on LPS stimulation was similar to that of OSM-induced IL-6 expression in human U343 glioma cells (Figures 5A and 5B). […]

STAT3/p65 complex = test: Co-immunoprecipitation of p65 and STAT3 in OSM-stimulated U343 cells; type: cell-based, human; settings: 100 ng/ml OSM, 20 μM compound, 6 h
Experimental: Cell lysates from 4 × 10^6 U343 cells/sample were obtained as described above. From each sample 200 μg of total protein were immunoprecipitated with 2 μg rabbit anti-p65 antibody (Santa Cruz Biotechnology; Heidelberg, Germany) or A. dest. (control) overnight at 4°C. Immunoprecipitated samples were incubated with 20 μl Dynabeads Protein G (Thermo Fisher Scientific, Karlsruhe, Germany) for 1 h at 4°C. Beads were washed 3 times with 1 ml PBS. Preparation of samples for SDS-PAGE analysis was done by means of dilution with SDS-PAGE sample buffer (Invitrogen, Darmstadt, Germany), followed by denaturation at 90°C for 10 min. SDS-PAGE analysis were performed as described before.
Normally, STAT3 is activated by phosphorylation at tyrosine 705, which induces dimerization, nuclear translocation and DNA binding. In contrast to other transcription factors like NF-κB, Creb and c/EBPb, STAT3 can not bind directly to the IL-6 promoter, because there are no STAT3 binding elements present. It is known from literature that several forms of interactions and cross talks between NF-κB and STAT3 exist. For instance, recent studies have shown a physical interaction between STAT3 and NF-κB [42, 43]. The importance of pSTAT3^S727 for protein interactions are under discussion. However, there is no information so far on the role of pSTAT3^S727 for the interaction with NF-κB. […]

[2] = tested on: OSM-stimulated IL-6 secretion from U343 cells; test: OSM-induced IL-6 release from U343 glioma cells (IL-6 ELISA of conditioned medium); type: cell-based, human
Experimental: The human glioma cell line U343 [34] was maintained in DMEM containing 10% fetal bovine serum and 60 μg/ml gentamycin (Invitrogen, Darmstadt, Germany) at 37°C in a 10% CO2 atmosphere.
as §1
Using the characterized cell culture model of OSM-induced IL-6 expression, our in-house compound libraries were screened for potent IL-6 expression inhibitors. Human U343 glioma cells were treated with 100 ng/ml OSM for 24 h. The analysis by IL-6 ELISA identified a set of structurally related compounds as potent inhibitors of IL-6 secretion (Table 1). […] HAKs with proline in position P1 are known from the literature as inhibitors of prolyl endopeptidase (PREP), a proline-specific serine protease.

[3] = Brain bioavailability by LC-MS/MS of mouse plasma and brain samples; type: in vivo
Experimental: Based on the results obtained from primary murine astrocytes, we reasoned that HAK compounds might also suppress elevated IL-6 expression in vivo. Therefore, bioactivity of the compound HAK-2 was analyzed in the LPS-induced mouse septic shock model. In preparation of this in vivo study, selected HAK compounds were characterized in detail concerning brain bioavailability. […] For further in vivo investigations compound HAK-2 with a logBB of -0.22 was selected.

logBB [3]: -0.22
SMILES: C[C@H](NC(=O)OCc1ccccc1)C(=O)N1CCC[C@H]1C(=O)c1nc2ccccc2s1 [HAK-2, Z-Ala-Pro-BTh]
Reduction of LPS-induced IL-6 expression [1]: 60% | p65-mediated STAT3 co-immunoprecipitation (STAT3/p65 complex): clear reduction | Remaining IL-6 expression [% of control] ([2]; 100 ng/ml OSM, 24 h, IL-6 release of vehicle-treated cells set to 100% (n = 2), mean ± SD): 18.7 ± 3.87 % of control | Effect on OSM-induced IL-6 secretion (in words) ([2]; OSM-stimulated): significantly reduced
